# Data: ChEMBL document CHEMBL1201862, “PubChem BioAssay data set” (2004)
#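 Cultured in 96-well plates, cells were exposed to test compound for 48 hours across five concentrations. GI50 marks 50% less growth.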 Active and inactive are the calls of the source. Cut-off read from the data, not from the text of the source: active = GI50 up to about 1.1 µM and inactive = higher.
# How the values were obtained:
# Assay in all cases: inhibition of tumour cell growth, NCI panel, 48 h
# 786-0 = test system: 786-0
# A498 = test system: A498
# A549 = test system: A549
# ACHN = test system: ACHN
# CAKI-1 = test system: CAKI-1
# CCRF-CEM = test system: CCRF-CEM
# COLO 205 = test system: COLO 205
# DMS-114 = test system: DMS-114
# DMS-273 = test system: DMS-273
# EKVX = test system: EKVX
# HCC 2998 = test system: HCC 2998
# HCT-116 = test system: HCT-116
# HCT-15 = test system: HCT-15
# HL-60 = test system: HL-60
# HOP-18 = test system: HOP-18
# HOP-62 = test system: HOP-62
# HOP-92 = test system: HOP-92
# HT-29 = test system: HT-29
# IGROV-1 = test system: IGROV-1
# K562 = test system: K562
# KM-20L2 = test system: KM-20L2
# KM12 = test system: KM12
# LOX IMVI = test system: LOX IMVI
# LXFL 529 = test system: LXFL 529
# M14 = test system: M14
# MOLT-4 = test system: MOLT-4
# Malme-3M = test system: Malme-3M
# NCI-H226 = test system: NCI-H226
# NCI-H23 = test system: NCI-H23
# NCI-H460 = test system: NCI-H460
# NCI-H522 = test system: NCI-H522
# OVCAR-3 = test system: OVCAR-3
# OVCAR-4 = test system: OVCAR-4
# OVCAR-5 = test system: OVCAR-5
# OVCAR-8 = test system: OVCAR-8
# RPMI-8226 = test system: RPMI-8226
# RXF 393 = test system: RXF 393
# SF-268 = test system: SF-268
# SF-295 = test system: SF-295
# SF-539 = test system: SF-539
# SK-MEL-28 = test system: SK-MEL-28
# SK-MEL-2 = test system: SK-MEL-2
# SK-MEL-5 = test system: SK-MEL-5
# SK-OV-3 = test system: SK-OV-3
# SN12C = test system: SN12C
# SNB-19 = test system: SNB-19
# SNB-75 = test system: SNB-75
# SNB-78 = test system: SNB-78
# SR = test system: SR
# SW-620 = test system: SW-620
# TK-10 = test system: TK-10
# U-251 = test system: U-251
# UACC-257 = test system: UACC-257
# UACC-62 = test system: UACC-62
# UO-31 = test system: UO-31
# DLD-1 = test system: DLD-1
# M19-MEL = test system: M19-MEL
# MCF7 = test system: MCF7
# NCI/ADR-RES = test system: NCI/ADR-RES
# XF498 = test system: XF498
structure (smiles),measurement,setting,value
COC(=O)C(=O)C(CC(=O)Nc1cc(Cl)ccc1Cl)C(=O)OC (centres undefined),GI50,786-0,> 100 µM (inactive)
same,GI50,A498,> 100 µM (inactive)
same,GI50,A549,> 100 µM (inactive)
same,GI50,ACHN,> 100 µM (inactive)
same,GI50,CAKI-1,> 100 µM (inactive)
same,GI50,CCRF-CEM,> 100 µM (inactive)
same,GI50,COLO 205,> 100 µM (inactive)
same,GI50,DMS-114,> 100 µM (inactive)
same,GI50,DMS-273,> 100 µM (inactive)
same,GI50,EKVX,> 100 µM (inactive)
same,GI50,HCC 2998,> 100 µM (inactive)
same,GI50,HCT-116,> 100 µM (inactive)
same,GI50,HCT-15,> 100 µM
same,GI50,HL-60,> 100 µM (inactive)
same,GI50,HOP-18,> 100 µM (inactive)
same,GI50,HOP-62,> 100 µM (inactive)
same,GI50,HOP-92,> 100 µM (inactive)
same,GI50,HT-29,> 100 µM (inactive)
same,GI50,IGROV-1,> 100 µM (inactive)
same,GI50,K562,> 100 µM (inactive)
same,GI50,KM-20L2,> 100 µM (inactive)
same,GI50,KM12,> 100 µM (inactive)
same,GI50,LOX IMVI,> 100 µM (inactive)
same,GI50,LXFL 529,> 100 µM (inactive)
same,GI50,M14,> 100 µM (inactive)
same,GI50,MOLT-4,> 100 µM (inactive)
same,GI50,Malme-3M,> 100 µM (inactive)
same,GI50,NCI-H226,> 100 µM (inactive)
same,GI50,NCI-H23,> 100 µM (inactive)
same,GI50,NCI-H460,> 100 µM (inactive)
same,GI50,NCI-H522,> 100 µM (inactive)
same,GI50,OVCAR-3,> 100 µM (inactive)
same,GI50,OVCAR-4,> 100 µM (inactive)
same,GI50,OVCAR-5,> 100 µM (inactive)
same,GI50,OVCAR-8,> 100 µM (inactive)
same,GI50,RPMI-8226,> 100 µM (inactive)
same,GI50,RXF 393,> 100 µM (inactive)
same,GI50,SF-268,> 100 µM (inactive)
same,GI50,SF-295,> 100 µM (inactive)
same,GI50,SF-539,> 100 µM (inactive)
same,GI50,SK-MEL-28,> 100 µM (inactive)
same,GI50,SK-MEL-2,> 100 µM (inactive)
same,GI50,SK-MEL-5,> 100 µM (inactive)
same,GI50,SK-OV-3,> 100 µM (inactive)
same,GI50,SN12C,> 100 µM (inactive)
same,GI50,SNB-19,> 100 µM (inactive)
same,GI50,SNB-75,> 100 µM (inactive)
same,GI50,SNB-78,> 100 µM (inactive)
same,GI50,SR,> 100 µM (inactive)
same,GI50,SW-620,> 100 µM (inactive)
same,GI50,TK-10,> 100 µM (inactive)
same,GI50,U-251,> 100 µM (inactive)
same,GI50,UACC-257,> 100 µM (inactive)
same,GI50,UACC-62,> 100 µM (inactive)
same,GI50,UO-31,> 100 µM (inactive)
CCOC(=O)C(C)NC(=O)N(C)C12CC3CC(CC(C3)C1)C2 (centres undefined),GI50,A498,116 µM (inactive)
same,GI50,A549,197 µM (inactive)
same,GI50,CAKI-1,231 µM (inactive)
same,GI50,CCRF-CEM,138 µM (inactive)
same,GI50,COLO 205,140 µM (inactive)
same,GI50,DLD-1,50.7 µM (inactive)
same,GI50,DMS-114,115 µM (inactive)
same,GI50,DMS-273,209 µM (inactive)
same,GI50,EKVX,450 µM (inactive)
same,GI50,HCC 2998,268 µM (inactive)
same,GI50,HCT-116,173 µM (inactive)
same,GI50,HCT-15,187 µM
same,GI50,HL-60,> 96.8 µM (inactive)
same,GI50,HOP-18,210 µM (inactive)
same,GI50,HOP-62,316 µM (inactive)
same,GI50,HOP-92,20.7 µM (inactive)
same,GI50,HT-29,281 µM (inactive)
same,GI50,IGROV-1,286 µM (inactive)
same,GI50,K562,169 µM (inactive)
same,GI50,KM-20L2,199 µM (inactive)
same,GI50,KM12,179 µM (inactive)
same,GI50,LOX IMVI,116 µM (inactive)
same,GI50,M19-MEL,177 µM (inactive)
same,GI50,MCF7,139 µM (inactive)
same,GI50,MOLT-4,63.2 µM (inactive)
same,GI50,Malme-3M,194 µM (inactive)
same,GI50,NCI-H226,233 µM (inactive)
same,GI50,NCI-H23,185 µM (inactive)
same,GI50,NCI-H460,192 µM (inactive)
same,GI50,NCI-H522,135 µM (inactive)
same,GI50,NCI/ADR-RES,151 µM (inactive)
same,GI50,OVCAR-3,149 µM (inactive)
same,GI50,OVCAR-4,175 µM (inactive)
same,GI50,OVCAR-5,> 500 µM (inactive)
same,GI50,OVCAR-8,265 µM (inactive)
same,GI50,RPMI-8226,125 µM (inactive)
same,GI50,RXF 393,153 µM (inactive)
same,GI50,SF-268,319 µM (inactive)
same,GI50,SF-295,203 µM (inactive)
same,GI50,SF-539,344 µM (inactive)
same,GI50,SK-MEL-28,317 µM (inactive)
same,GI50,SK-MEL-2,169 µM (inactive)
same,GI50,SK-MEL-5,111 µM (inactive)
same,GI50,SK-OV-3,237 µM (inactive)
same,GI50,SN12C,385 µM (inactive)
same,GI50,SNB-19,412 µM (inactive)
same,GI50,SNB-75,77.4 µM (inactive)
same,GI50,SNB-78,277 µM (inactive)
same,GI50,SW-620,218 µM (inactive)
same,GI50,U-251,308 µM (inactive)
same,GI50,UACC-257,133 µM (inactive)
same,GI50,UACC-62,175 µM (inactive)
same,GI50,UO-31,175 µM (inactive)
same,GI50,XF498,192 µM (inactive)
